Results: patent publication US20230301981A1, “TLR7/8 ANTAGONISTS AND USES THEREOF” (Merck Patent GmbH, priority 2020, published 2023)

Tests used:
TLR7 = biological target: T1, TLR7 (Homo sapiens, UniProt Q9NYK1); test: Human whole blood assay, TLR7-specific agonist stimulation, IL-6 by AlphaLISA; format: cell-based; parameters: Human whole blood from healthy donors was drawn into EDTA Vacutainer tubes; endogenous in cells; host or cells: human whole blood (healthy donors); conditions: TLR7-specific agonist 3 µM, IL-6 readout, read-out: IC50 TLR7 (IL6 READOUT) HUMAN WHOLE BLOOD (N=2)
T1 sequence (Q9NYK1 27-1049): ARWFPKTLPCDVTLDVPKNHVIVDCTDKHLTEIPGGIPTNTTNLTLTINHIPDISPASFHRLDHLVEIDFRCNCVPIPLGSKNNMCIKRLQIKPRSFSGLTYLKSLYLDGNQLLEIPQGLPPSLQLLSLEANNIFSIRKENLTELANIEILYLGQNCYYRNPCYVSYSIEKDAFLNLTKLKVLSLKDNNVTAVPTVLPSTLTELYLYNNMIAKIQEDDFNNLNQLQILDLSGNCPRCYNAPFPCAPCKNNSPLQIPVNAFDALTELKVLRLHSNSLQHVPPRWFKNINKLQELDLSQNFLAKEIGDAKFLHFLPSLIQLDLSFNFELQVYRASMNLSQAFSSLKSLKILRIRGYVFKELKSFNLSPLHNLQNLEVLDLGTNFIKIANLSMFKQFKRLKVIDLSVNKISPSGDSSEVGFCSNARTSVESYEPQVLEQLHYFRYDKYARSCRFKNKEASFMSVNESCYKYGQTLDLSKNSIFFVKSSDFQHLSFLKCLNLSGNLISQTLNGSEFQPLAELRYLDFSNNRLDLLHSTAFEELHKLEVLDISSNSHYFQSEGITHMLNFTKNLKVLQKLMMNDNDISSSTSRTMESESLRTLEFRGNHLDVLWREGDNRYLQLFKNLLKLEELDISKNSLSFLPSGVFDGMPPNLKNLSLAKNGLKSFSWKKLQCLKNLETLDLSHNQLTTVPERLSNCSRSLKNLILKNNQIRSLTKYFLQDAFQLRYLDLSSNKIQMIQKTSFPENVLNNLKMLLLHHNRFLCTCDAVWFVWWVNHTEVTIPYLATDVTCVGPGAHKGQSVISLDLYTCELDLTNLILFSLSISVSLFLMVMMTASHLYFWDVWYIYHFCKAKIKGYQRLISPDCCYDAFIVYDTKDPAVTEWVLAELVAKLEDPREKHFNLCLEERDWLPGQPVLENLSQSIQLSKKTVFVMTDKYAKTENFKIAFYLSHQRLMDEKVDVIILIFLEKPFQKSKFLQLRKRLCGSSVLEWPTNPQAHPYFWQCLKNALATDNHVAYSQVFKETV
Protocol: (§1) Human whole blood from healthy donors was drawn into EDTA Vacutainer tubes and the experiment started within 2 hr of draw. Four parts blood was diluted with 1 part PBS. 10 mM compounds stock solutions were serially diluted 1:3 eleven times in DMSO. Each serial dilution was further diluted by transferring 3 µl to 100 µl RPMI. For the stimulation only and no stimulation controls, 3 µl 100% DMSO was transferred to 100 µl RPMI. Then, 5 µl of each of these dilutions were transferred to 96-well tissue culture grade U-bottom plate in triplicate for each ligand and each donor. Final inhibitor concentrations were 10, 3.3, 1.1, 0.37, 0.12, 0.04, 0.014, 0.0046, 0.0015, 0.00051, 0.00017, 0.00006 µM. No inhibitor (stimulation only) controls were included in triplicate for each donor. Diluted blood was dispensed on top of inhibitor dilutions at 150 µl/well. Plates were incubated at 37° C. 5% CO2 for 30 min. For TLR7 stimulation, 10 mM stock of a TLR7-specific small molecule agonist in DMSO was diluted to 90 µM in RPMI and 5 µl were added to each inhibitor dilution for each donor. Final concentration was 3 µM. For TLR8 stimulation, 10 mM stock of a TLR8-specific small molecule agonist in DMSO was diluted to 15 µM in RPMI and 5 µl were added to each inhibitor dilution for each donor. Final concentration was 0.5 µM. No stimulation controls were included in triplicate for each donor. Plates were incubated at 37° C. 5% CO2 overnight. Next day, plasma was collected and IL-6 was measured by AlphaLISA (PerkinElmer AL223 according to manufacturer’s protocol.

TLR8 = biological target: T2, TLR8 (Homo sapiens, UniProt Q9NR97); test: Human whole blood assay, TLR8-specific agonist stimulation, IL-6 by AlphaLISA; format: cell-based; conditions: TLR8-specific agonist 0.5 µM, IL-6 readout, read-out: IC50 TLR8 (IL6 READOUT) HUMAN WHOLE BLOOD (N=2)
T2 construct: Human whole blood from healthy donors was drawn into EDTA Vacutainer tubes; endogenous in cells; host or cells: human whole blood (healthy donors)
T2 sequence (Q9NR97 27-1041): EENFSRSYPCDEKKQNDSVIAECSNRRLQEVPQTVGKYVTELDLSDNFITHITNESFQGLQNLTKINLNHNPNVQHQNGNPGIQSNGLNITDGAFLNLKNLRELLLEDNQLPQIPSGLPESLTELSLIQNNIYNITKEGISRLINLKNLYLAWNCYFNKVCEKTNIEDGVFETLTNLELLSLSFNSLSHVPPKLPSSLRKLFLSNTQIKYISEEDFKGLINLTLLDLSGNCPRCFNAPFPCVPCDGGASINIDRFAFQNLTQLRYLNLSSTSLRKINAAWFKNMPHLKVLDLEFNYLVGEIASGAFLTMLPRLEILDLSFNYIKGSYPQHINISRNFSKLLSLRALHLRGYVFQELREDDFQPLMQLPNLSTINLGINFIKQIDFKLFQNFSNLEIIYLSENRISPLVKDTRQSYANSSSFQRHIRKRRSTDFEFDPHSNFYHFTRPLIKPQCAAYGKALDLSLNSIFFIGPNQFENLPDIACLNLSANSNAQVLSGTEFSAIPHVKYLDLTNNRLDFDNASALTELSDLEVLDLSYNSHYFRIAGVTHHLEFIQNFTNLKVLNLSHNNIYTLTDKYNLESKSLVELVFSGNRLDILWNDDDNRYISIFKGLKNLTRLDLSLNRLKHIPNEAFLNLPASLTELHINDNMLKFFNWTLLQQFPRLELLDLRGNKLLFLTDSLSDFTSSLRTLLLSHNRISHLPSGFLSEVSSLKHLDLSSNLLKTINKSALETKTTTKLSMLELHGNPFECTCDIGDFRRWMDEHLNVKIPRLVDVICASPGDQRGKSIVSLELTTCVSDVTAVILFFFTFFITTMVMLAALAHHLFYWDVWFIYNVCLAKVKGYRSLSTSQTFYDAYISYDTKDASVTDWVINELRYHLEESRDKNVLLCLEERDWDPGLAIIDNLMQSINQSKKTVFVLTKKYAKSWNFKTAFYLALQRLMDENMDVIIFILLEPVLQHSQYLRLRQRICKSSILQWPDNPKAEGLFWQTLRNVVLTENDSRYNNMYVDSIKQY
Protocol: as §1

SMILES	IC50 (TLR7) [µM]	IC50 (TLR8) [µM]
COc1ccc2nc3cc(Cl)ccc3c(Nc3cc(CN4CCCC4)c(O)c(CN4CCCC4)c3)c2n1 [Compound 1, Pyronaridine]	0.21	0.61
CCN(CCO)CCCC(C)Nc1ccnc2cc(Cl)ccc12 (stereo not shown) [HYDROXY-CHLOROQUINE HCQ, hydroxychloroquine]	0.96	1.24
